Measured values: patent US10849878B2 (OBSHCHESTVO S OGRANICHENNOY OTVETSTVENNOSTYU “NORMOFARM”, priority 2015, dated 2020)
Values joined by “and” are separate entries in the source; they are usually repeats but may differ in a detail not shown here. Equal values may be shown once. Read-outs that look alike come from different tables or passages of the source.

Tests used:
white Wistar rats = assay: transport stress simulation test (shaker, 240 min); format: in vivo, rat; parameters: AST in blood serum / ALT in blood serum / Creatinine in blood serum: unit not given here
Procedure: The anti-stress, anxiolytic and antidepressant effects of the claimed agent and compositions on its basis were determined as follows. […] The suspension test. Five animals from each group were used. Each animal was suspended for 24 hours. After that the sample of whole blood was taken from the sublingual vessels of that animal Then the animal was placed in a desiccator with diethyl ether. 60 minutes later a spinal decapitation of the animal was performed. The abdominal opening was performed and the number of ulcers on the inner surface of the stomach was counted. The obtained whole blood was placed in two test tubes. The whole blood was used to determine the number of eosinophils by the Duncker method. Serum was used to determine the biochemical composition of the blood. Adrenaline and norepinephrine were determined as biochemical indices. These characteristics are specific markers identifying the impact of stress factors of various etiologies. • 2. The transport stress simulation test. Five animals from each group were used. The animals were placed in cages fixed on a laboratory shutter. The duration of the test was 240 minutes. At the end of the test the animals were examined by the techniques described in paragraph 1. A sample of whole blood was taken to determine the number of eosinophils by the Duncker method. The blood serum was studied to measure the amount of enzymes: alanine aminotransferase (ALT), aspartate aminotransferase (AST), creatinine
The tests were carried out on 2-month-old rats of the Wistar line. The groups were selected according to the principle of paired counterparts.
During the course of the study the animals were selected from the formed groups of 10 animals each to participate in stress tests, 5 animals per test. The selection was made on the 7th, 14th, 21st day of the drug administration (experiments were performed on the same days right after selection). The animals were weighed weekly immediately before testing. The obtained data were processed by statistical methods of mathematical statistics. […] Water for injection produced by the “Bufus Novosibkhimpharm” was used as a solvent. The introduced volume was 1.5 ml. The solution was introduced at the same tine 2 hours after morning feeding. The first group was given water for injection by the same way. The volume of administration was 1.5 ml.
The rotating universal Shaker Unimax 10 was used as a model for simulating transport stress. The rotation speed was chosen at 120 rpm for 240 min A cage with five animals was fixed on the site. The rats stayed in the cage in a free state. A change in the reaction of animals with prolonged administration of the drug was observed. The sampling and decapitation process is described in Example 1.
Physiological, morphological and biochemical blood parametres were determined as markers of the impact of stress on animals, such as: individual and group behavior of animals, the number of enuresis acts, the number of defecation acts, and the number of excrement boluses; eosinophils in whole blood according to Duncker and the levels of ALT, AST enzymes and creatinine in the blood serum were measured.
Transport stress is a striking example of technological effect on animal and human body. […] Thus, it suits best as an indicator for the observation of the classical example of the development of the adaptive syndrome by Selye. In the experiment, a simulation of the transport impact on the rats was performed with the help of the laboratory shutter. Progressive 4 hour-long circular vibrations adversely affected the animals. The rats in the control group were constantly moving, colliding with each other trying to concentrate in the corners, where the amplitude of the oscillation was the highest. At the same time the number of defecation acts was higher. The animals behaved aggressively. The stronger ones tried to push out a weaker animal out of the corner.

male Wistar rats = conditions: for Dead / Survived: 6 rats
[1] = 30 mg/kg solution by gastric tube, administration day 7
[2] = 30 mg/kg solution by gastric tube, administration day 14
[3] = 30 mg/kg solution by gastric tube, administration day 21
[4] = 60 mg/kg in the form of pills with cocoa, administration day 7
[5] = 60 mg/kg in the form of pills with cocoa, administration day 14
[6] = 60 mg/kg in the form of pills with cocoa, administration day 21
[7] = 60 mg/kg solution by gastric tube, administration day 7
[8] = 60 mg/kg solution by gastric tube, administration day 14
[9] = 60 mg/kg solution by gastric tube, administration day 21
[10] = 120 mg/kg solution by gastric tube, administration day 7
[11] = 120 mg/kg solution by gastric tube, administration day 14
[12] = 120 mg/kg solution by gastric tube, administration day 21
[13] = single oral dose 6000 mg/kg, 6000 mg/kg
[14] = single oral dose 7000 mg/kg, 7000 mg/kg

## O=C1O[C@H]([C@@H](O)CO)C([O-])=C1O.[Li+] [lithium ascorbate]
White Wistar rats; [1]
  ALT in blood serum: 29.8 ± 8.45
  AST in blood serum: 91.7 ± 7.29
  Creatinine in blood serum: 36.5 ± 3.84
  Eosinophil count in whole blood: 794 ± 6.9
  Number of boluses in defecation: 4.2 ± 0.4
White Wistar rats; [2]
  ALT in blood serum: 32.1 ± 9.10
  AST in blood serum: 109.9 ± 9.67
  Creatinine in blood serum: 48.1 ± 3.82
  Eosinophil count in whole blood: 921 ± 9.1
  Number of boluses in defecation: 3.9 ± 0.4
White Wistar rats; [3]
  ALT in blood serum: 31.7 ± 3.14
  AST in blood serum: 121.2 ± 7.21
  Creatinine in blood serum: 46.3 ± 3.26
  Eosinophil count in whole blood: 928 ± 10.7
  Number of boluses in defecation: 3.5 ± 0.3
White Wistar rats; [4]
  ALT in blood serum: 22.7 ± 8.19
  AST in blood serum: 68.8 ± 4.72
  Creatinine in blood serum: 25.7 ± 4.30
  Eosinophil count in whole blood: 528 ± 5.8
  Number of boluses in defecation: 7.2 ± 1.5
White Wistar rats; [5]
  ALT in blood serum: 34.8 ± 6.83
  AST in blood serum: 119.7 ± 6.21
  Creatinine in blood serum: 56.7 ± 6.44
  Eosinophil count in whole blood: 938 ± 11.7
  Number of boluses in defecation: 5.2 ± 0.9
White Wistar rats; [6]
  ALT in blood serum: 35.0 ± 4.29
  AST in blood serum: 121. ± 4.29
  Creatinine in blood serum: 58.4 ± 9.30
  Eosinophil count in whole blood: 947 ± 12.4
  Number of boluses in defecation: 3.7 ± 0.3
White Wistar rats; [7]
  ALT in blood serum: 31.0 ± 3.15
  AST in blood serum: 97.9 ± 5.04
  Creatinine in blood serum: 39.6 ± 7.98
  Eosinophil count in whole blood: 822 ± 8.7
  Number of boluses in defecation: 4.6 ± 0.4
White Wistar rats; [8]
  ALT in blood serum: 33.1 ± 2.84
  AST in blood serum: 112.4 ± 6.23
  Creatinine in blood serum: 48.3 ± 8.27
  Eosinophil count in whole blood: 919 ± 4.1
  Number of boluses in defecation: 3.9 ± 0.4
White Wistar rats; [9]
  ALT in blood serum: 32.4 ± 6.37
  AST in blood serum: 115.5 ± 8.97
  Creatinine in blood serum: 45.6 ± 2.73
  Eosinophil count in whole blood: 922 ± 9.3
  Number of boluses in defecation: 3.7 ± 0.7
White Wistar rats; [10]
  ALT in blood serum: 32.4 ± 7.75
  AST in blood serum: 107.1 ± 6.20
  Creatinine in blood serum: 39.8 ± 6.13
  Eosinophil count in whole blood: 856 ± 4.2
  Number of boluses in defecation: 5.0 ± 1.1
White Wistar rats; [11]
  ALT in blood serum: 31.7 ± 7.32
  AST in blood serum: 110.3 ± 7.41
  Creatinine in blood serum: 47.8 ± 1.46
  Eosinophil count in whole blood: 901 ± 16.8
  Number of boluses in defecation: 4.1 ± 1.1
White Wistar rats; [12]
  ALT in blood serum: 30.1 ± 7.42
  AST in blood serum: 118.7 ± 4.48
  Creatinine in blood serum: 42.1 ± 2.97
  Eosinophil count in whole blood: 907 ± 4.3
  Number of boluses in defecation: 4.0 ± 1.0
Male Wistar rats; oral, white rats of the Wistar line
  LD100: 8000 mg/kg
Male Wistar rats; single oral dose 1000 mg/kg
  Dead, %: 0%
  Dead: 0
  Survived: 6
Male Wistar rats; single oral dose 2000 mg/kg
  Dead, %: 0%
  Dead: 0
  Survived: 6
Male Wistar rats; single oral dose 3000 mg/kg
  Dead, %: 0%
  Dead: 0
  Survived: 6
Male Wistar rats; single oral dose 4000 mg/kg
  Dead, %: 0%
  Dead: 0
  Survived: 6
Male Wistar rats; single oral dose 5000 mg/kg
  Dead, %: 16.6%
  Dead: 1
  Survived: 5
Male Wistar rats; single oral dose 6000 mg/kg
  Dead, %: 50%
Male Wistar rats; [13]
  Dead: 3 and 3/3
  Survived: 3 and 3/3
Male Wistar rats; single oral dose 7000 mg/kg
  Dead, %: 50%
Male Wistar rats; [14]
  Dead: 3 and 3/3
  Survived: 3 and 3/3
Male Wistar rats; single oral dose 8000 mg/kg
  Survived: 0
